Test results published in US6387905B2, “Compounds useful for inhibition of farnesyl protein transferase” (Schering Corporation, priority 1996, dated 2002).
Where two headings read alike, the source gives them in different places.

Tests used:
[1] = target: farnesyl protein transferase (FPT), H-ras (Homo sapiens, UniProt P49354+P49356); assay: FPT IC50 (H-ras), inhibition of farnesyl protein transferase, in vitro enzyme assay; type: biochemical
Procedure: (§1) FPT IC50 (inhibition of farnesyl protein transferase, in vitro enzyme assay) and COS Cell IC50 (Cell-Based Assay) were determined following the assay procedures described in WO 95/10516, published Apr. 20, 1995. GGPT IC50 (inhibition of geranylgeranyl protein transferase, in vitro enzyme assay), Cell Mat Assay, and anti-tumor activity (in vivo anti-tumor studies) could be determined by the assay procedures described in WO 95/10516. The disclosure of WO 95/10516 is incorporated herein by reference thereto.

[2] = target: farnesyl protein transferase (FPT), K-ras (Homo sapiens, UniProt P49354+P49356); assay: FPT IC50 (K-ras), inhibition of farnesyl protein transferase, in vitro enzyme assay; type: biochemical
Procedure: as §1

COS Cell = COS Cell IC50 (Cell-Based Assay); settings: COS
Procedure: as §1

Human tumor cells = assay: Soft Agar Assay (anchorage-independent growth); type: cell-based; settings: Table 5, read-out: Soft Agar IC50
Procedure: Anchorage-independent growth is a characteristic of tumorgenic cell lines. Human tumor cells are suspended in growth medium containing 0.3% agarose and an indicated concentration of a farnesyl transferase inhibitor. The solution is overlayed onto growth medium solidified with 0.6% agarose containing the same concentration of farnesyl transferase inhibitor as the top layer. After the top layer is solidified, plates are incubated for 10-16 days at 37° C. under 5% CO2 to allow colony outgrowth. After incubation, the colonies are stained by overlaying the agar with a solution of MTT (3-[4,5-dimethyl-thiazol-2-yl]-2,5-diphenyltetrazolium bromide, Thiazolyl blue) (1 mg/mL in PBS). Colonies can be counted and the IC50's can be determined.

[3] = Table 3, H-ras, read-out: FPT IC50 (nM) (H-ras)
[4] = Table 3, read-out: COS Cell IC50
[5] = Table 5, read-out: Cos Cell IC50
[6] = H-ras, read-out: FPT IC50 (H-ras)

Row | Structure (SMILES) | IC50 [1, 3] | IC50 [2] | IC50 (COS Cell; [4]) | melting point | IC50 (COS Cell; [5]) | IC50 (Human tumor cells; Homo sapiens) | IC50 [1, 6] | IC50 (Human tumor cells; listed as 12.1) | IC50 ([1]; Table 4, read-out: FPT IC50)
1 | CC(C)(C)OC(=O)N1CCC[C@H]1C(=O)N1CCC(CC(=O)N2CCC([C@H]3c4ncc(Br)cc4CCc4cc(Cl)cc(Br)c43)CC2)CC1 [Example 9] | 11.6 nM | 34.8 nM | 700 nM |  |  |  |  |  | 
2 | CN(C)CCCC(=O)N1CCC(CC(=O)N2CCC(C3c4ncc(Br)cc4CCc4cc(Cl)cc(Br)c43)CC2)CC1 (single isomer, unassigned; (+)) [Example 19] | 35 nM |  |  | 69 to 71 °C |  |  |  |  | 
3 | CC(C)(C)OC(=O)N[C@@H](Cc1c[nH]cn1)C(=O)N1CCC(CC(=O)N2CCC([C@H]3c4ncc(Br)cc4CCc4cc(Cl)cc(Br)c43)CC2)CC1 [Example 8] | 7.4 nM | 41 nM | 125 nM |  | 125 nM |  |  |  | 
4 | C[C@@H](NC(=O)OC(C)(C)C)C(=O)N1CCC(CC(=O)N2CCC([C@H]3c4ncc(Br)cc4CCc4cc(Cl)cc(Br)c43)CC2)CC1 [Example 5] | 8.4 nM | 22 nM |  |  |  |  |  |  | 
5 | COC(=O)CCCC(=O)N1CCC(CC(=O)N2CCC(C3c4ncc(Br)cc4CCc4cc(Cl)cc(Br)c43)CC2)CC1 (single isomer, unassigned; (+)) [Example 24] | 4.8 nM |  | 10 nM | 101 to 102 °C |  |  |  |  | 
6 | O=C(CC1CCN(C(=O)[C@@H]2CCCN2)CC1)N1CCC([C@H]2c3ncc(Br)cc3CCc3cc(Cl)cc(Br)c32)CC1 [Example 12] | 4.4 nM | 35 nM | 55 nM |  |  | 250 nM |  |  | 
7 | C[C@@H](N)C(=O)N1CCC(CC(=O)N2CCC([C@H]3c4ncc(Br)cc4CCc4cc(Cl)cc(Br)c43)CC2)CC1 [Example 6] |  | 31 nM | 39 nM |  | 39 nM | 200 nM | 8.1 nM |  | 
8 | COC(=O)CCC(=O)N1CCC(CC(=O)N2CCC(C3c4ncc(Br)cc4CCc4cc(Cl)cc(Br)c43)CC2)CC1 (single isomer, unassigned; (+)) [Example 25] | 5.1 nM |  | 39 nM | 114 to 115 °C |  | 250 nM |  |  | 
9 | N[C@@H](Cc1ccccc1)C(=O)N1CCC(CC(=O)N2CCC([C@H]3c4ncc(Br)cc4CCc4cc(Cl)cc(Br)c43)CC2)CC1 [Example 10] | 8.3 nM | 71.2 nM | 300 nM |  |  |  |  |  | 
10 | O=C(CCN1CCCCC1)N1CCC(CC(=O)N2CCC(C3c4ncc(Br)cc4CCc4cc(Cl)cc(Br)c43)CC2)CC1 (single isomer, unassigned; (+)) [Example 22] | < 2.6 nM |  | 43 nM | 127 to 128 °C |  |  |  |  | 
11 | CCOC(=O)CC(=O)N1CCC(CC(=O)N2CCC(C3c4ncc(Br)cc4CCc4cc(Cl)cc(Br)c43)CC2)CC1 (single isomer, unassigned; (+)) [Example 26] | < 2 nM |  | 125 nM | 77 to 78 °C |  |  |  |  | 
12 | C[C@H](NC(=O)OC(C)(C)C)C(=O)N1CCC(CC(=O)N2CCC([C@H]3c4ncc(Br)cc4CCc4cc(Cl)cc(Br)c43)CC2)CC1 [Example 3] | 6.3 nM | 30 nM |  |  |  |  |  |  | 
13 | C[C@H](N)C(=O)N1CCC(CC(=O)N2CCC([C@H]3c4ncc(Br)cc4CCc4cc(Cl)cc(Br)c43)CC2)CC1 [Example 4] |  | 23.8 nM | 140 nM |  | 140 nM |  | 5.2 nM |  | 
14 | CC(C)(C)OC(=O)NCC(=O)N1CCC(CC(=O)N2CCC([C@H]3c4ncc(Br)cc4CCc4cc(Cl)cc(Br)c43)CC2)CC1 [Example 1] | 12.3 nM | 43.2 nM |  |  |  |  |  |  | 
15 | CN(C)CCC(=O)N1CCC(CC(=O)N2CCC(C3c4ncc(Br)cc4CCc4cc(Cl)cc(Br)c43)CC2)CC1 (single isomer, unassigned; (+)) [Example 20] | 5.8 nM | 19.8 nM | 10 nM | 82 to 84 °C |  | 190 nM |  |  | 
16 | CN(C)CC(=O)N1CCC(CC(=O)N2CCC(C3c4ncc(Br)cc4CCc4cc(Cl)cc(Br)c43)CC2)CC1 (single isomer, unassigned; (+)) [Example 21] | 2.5 nM | 19.4 nM | 10 nM |  |  | 160 nM |  | 90 nM | 
17 | CCOC(=O)CC(=O)N1CCC(CC(=O)N2CCC([C@H]3c4ncc(Br)cc4CCc4cc(Cl)cc(Br)c43)CC2)CC1 [Example 30] |  |  |  | 77.2 to 78.1 °C |  |  |  |  | 2.8 nM
